Test systems include UACC-257 melanoma; HCT-116 colon; SF-295 CNS; OVCAR-8 ovarian; HCC-2998 colon; SN12C renal; NCI-H226 lung; 786-0 renal; SNB-19 CNS; A498 renal.
What all share (assay): NCI-60 cell line screen, 48 h

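In this assay, cells in 96-well plates receive the compound at five concentrations for 48 hours. Endpoints are linearly interpolated between the surrounding concentrations. TGI: concentration producing complete growth inhibition.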

Consider `COC(=O)[C@H]1ON2O[C@H](OC3CCCC[C@@H]3c3ccccc3)C[C@@H]3CC[C@H]1[C@@]32C` (stereo not given in full), for which the TGI in the assay on UACC-257 melanoma, with HCT-116 colon, in the assay with SF-295 CNS, with OVCAR-8 ovarian, with HCC-2998 colon and in the assay on SN12C renal was above 100 µM each time. Further, the TGI in the assay with NCI-H226 lung, in the assay with 786-0 renal, with SNB-19 CNS and with A498 renal was above 100 µM in each case.
Regarding `C=CC(C)(C)c1cc([C@@H]2COc3cc(O)ccc3C2=O)c(O)c(OC)c1OC`, the TGI in the assay on UACC-257 melanoma came out at 44.9 µM; with HCT-116 colon, 24.5 µM; with SF-295 CNS, 27.5 µM; with OVCAR-8 ovarian, 54.3 µM; with HCC-2998 colon, 34.3 µM; in the assay on SN12C renal, 31.3 µM. Besides, the TGI in the assay with NCI-H226 lung was 38.9 µM; with 786-0 renal, 31.9 µM; in the assay on SNB-19 CNS, 30.6 µM; with A498 renal, 35.4 µM.
Take `O=S(=O)(N1CCCCN(S(=O)(=O)C(F)(F)F)CCCN(S(=O)(=O)C(F)(F)F)CCCN(S(=O)(=O)C(F)(F)F)CCCCN(S(=O)(=O)C(F)(F)F)CCCN(S(=O)(=O)C(F)(F)F)CCC1)C(F)(F)F`: the TGI in the assay on UACC-257 melanoma is above 100 µM; in the assay on HCT-116 colon it was above 100 µM; with SF-295 CNS, 82.1 µM; with OVCAR-8 ovarian, above 100 µM; in the assay on HCC-2998 colon, above 100 µM; in the assay with SN12C renal it was above 100 µM. In addition, the TGI is above 100 µM in the assay on NCI-H226 lung, 35.3 µM in the assay on 786-0 renal, above 100 µM in the assay with SNB-19 CNS and above 100 µM in the assay with A498 renal.
Take `CSc1nc(Cl)c2c(n1)Sc1ncnn1C2O` (stereo not given): the TGI in the assay on UACC-257 melanoma worked out at 45.7 µM; with HCT-116 colon, 17.1 µM; in the assay on OVCAR-8 ovarian, 15.7 µM; in the assay on HCC-2998 colon, 27.4 µM; in the assay on SN12C renal, 24 µM; with 786-0 renal, 9.08 µM. Also, the TGI in the assay with SNB-19 CNS turned out to be 45.2 µM; with A498 renal, 38.1 µM.
As to `COc1cccc2c(NNc3ccc(Cl)cc3)c3ccc([N+](=O)[O-])cc3nc12`, the TGI stood at 55.2 µM in the assay with UACC-257 melanoma; 20.3 µM in the assay with HCT-116 colon; 36.1 µM in the assay with SF-295 CNS; 53 µM in the assay on HCC-2998 colon; 75.3 µM with SN12C renal; 36.8 µM in the assay with NCI-H226 lung. The TGI with 786-0 renal is 21.2 µM; in the assay with SNB-19 CNS it was 33.2 µM; with A498 renal, 33.2 µM.
On to `COC(=O)c1ccc2[nH]c3c(c2c1)CC(=O)Nc1ccccc1-3`, for which the TGI with UACC-257 melanoma, with HCT-116 colon, in the assay on SF-295 CNS, in the assay with OVCAR-8 ovarian, with HCC-2998 colon and in the assay with SN12C renal was above 100 µM in each case. Besides, the TGI in the assay with NCI-H226 lung, in the assay with 786-0 renal, with SNB-19 CNS and in the assay with A498 renal was above 100 µM each time.
For `C[N+]12C=CC=C1C(N1CCCC1)c1sc(-c3ccc(Cl)cc3)cc12` (stereo not given), the TGI turned out to be 28.9 µM in the assay on UACC-257 melanoma; 29.6 µM in the assay on HCT-116 colon; 43.7 µM in the assay with SF-295 CNS; 33.5 µM with OVCAR-8 ovarian; 29.2 µM in the assay with HCC-2998 colon; 27.9 µM with SN12C renal. In addition, the TGI in the assay with NCI-H226 lung was determined as 35.3 µM; with 786-0 renal, 28.8 µM; in the assay with SNB-19 CNS it was 26.8 µM; in the assay with A498 renal, 41.4 µM.
Regarding `CC1=CC(=O)C[C@]2(C)[C@@H](O)CC(C(C)CO)C[C@@H]12` (stereo not given in full), the TGI in the assay with UACC-257 melanoma, in the assay with HCT-116 colon, in the assay with SF-295 CNS, in the assay on OVCAR-8 ovarian, in the assay on HCC-2998 colon and with SN12C renal was above 100 µM throughout. The TGI with NCI-H226 lung, in the assay on 786-0 renal, with SNB-19 CNS and in the assay with A498 renal was above 100 µM throughout.
On to `CCN(CC)CC(C(=O)Nc1c(C)cccc1C)/C(C)=N/NC(N)=S` (stereo not given), for which the TGI in the assay on UACC-257 melanoma, in the assay with HCT-116 colon, in the assay with SF-295 CNS, in the assay with OVCAR-8 ovarian, in the assay with HCC-2998 colon and in the assay with NCI-H226 lung was above 100 µM in each case. The TGI in the assay on 786-0 renal and with A498 renal was above 100 µM in each case.
As to `CC(C)(C)OC(=O)N(CCCN)CCCCN(CCCN)C(=O)OC(C)(C)C`, the TGI in the assay on UACC-257 melanoma, with HCT-116 colon, with SF-295 CNS, in the assay with OVCAR-8 ovarian, in the assay on HCC-2998 colon and in the assay with NCI-H226 lung was above 100 µM in each case. In addition, the TGI in the assay on 786-0 renal, with SNB-19 CNS and with A498 renal was above 100 µM each time.
For the compound `C=C(Cl)C(Cl)(CBr)CCC(Cl)C(C)C` (stereo not given), the TGI is 6.02 µM with UACC-257 melanoma; 5.96 µM in the assay on HCT-116 colon; 6.48 µM in the assay with SF-295 CNS; above 100 µM in the assay with OVCAR-8 ovarian; 15.2 µM in the assay with HCC-2998 colon; 33.2 µM with SN12C renal. Besides, the TGI in the assay on NCI-H226 lung is above 65.5 µM; with 786-0 renal it was 4.26 µM; in the assay on SNB-19 CNS it was 14.2 µM; in the assay with A498 renal, 14.4 µM.
Turning to `O=c1[nH]/c(=C/c2ccc(OCc3ccccc3)cn2)c(=O)[nH]/c1=C/c1cccnc1`, the TGI with UACC-257 melanoma is above 100 µM; in the assay with HCT-116 colon it was above 100 µM; with SF-295 CNS it was 1.65 µM; in the assay on OVCAR-8 ovarian, above 100 µM; in the assay with HCC-2998 colon, 3.16 µM; in the assay with 786-0 renal it was above 100 µM. In addition, the TGI in the assay on SNB-19 CNS was above 100 µM; in the assay with A498 renal, 6.46 µM.
Consider `CC1=C2CC3=C(C)C(=O)O[C@H]3C[C@@H](C)[C@@H]2CC1`, for which the TGI with UACC-257 melanoma, in the assay with HCT-116 colon, with SF-295 CNS, in the assay with OVCAR-8 ovarian, in the assay with HCC-2998 colon and with NCI-H226 lung was above 100 µM each time. Further, the TGI in the assay with 786-0 renal, in the assay on SNB-19 CNS and with A498 renal was above 100 µM in each case.
With `COc1ccc(C2Oc3cc(OC)c(O)cc3[C@@H]2C)cc1` (stereo not given in full), the TGI in the assay with UACC-257 melanoma was above 100 µM; in the assay with HCT-116 colon, 25.9 µM; in the assay with SF-295 CNS, above 100 µM; in the assay on OVCAR-8 ovarian, 56.6 µM; in the assay with HCC-2998 colon it was above 100 µM; in the assay with NCI-H226 lung, 92.6 µM. Also, the TGI in the assay with 786-0 renal is 31.3 µM; in the assay on SNB-19 CNS it was 19.5 µM; with A498 renal it was above 100 µM.

(Values after PubChem BioAssay (NCI).)
